Results taken from patent publication US12180187B2, “1-phenyl-5-azinylpyrazolyl-3-oxyalkyl acids and their use for controlling unwanted plant growth” (BAYER AKTIENGESELLSCHAFT, priority 2019, dated 2024).
Values joined by “and” are separate entries in the source; they are usually repeats but may differ in a detail not shown here. Equal values may be shown once.

Tests used:
[1] = system: ALOMY; assay: Pre-emergence action against ALOMY, 1280 g/ha; format: in vivo, Alopecurus myosuroides; settings: visual scoring after about 3 weeks vs untreated controls, 100% = plants have died, 0% = like control plants
Summary of the method: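 Soil-surface application after sowing, before emergence: WP or EC formulations in water with 0.5% additive, 600 litres per hectare, onto sandy loam pots. Damage rated visually in % relative to untreated plants after roughly 3 weeks in a greenhouse.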

[2] = system: PHBPU; assay: Pre-emergence action at 320 g/ha against PHBPU; format: in vivo; settings: visual scoring after about 3 weeks vs untreated controls
Summary of the method: (§1)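 Greenhouse pot trial in which formulated compound (wettable powder or emulsion concentrate) goes onto the soil surface right after sowing, at a spray volume of 600 l/ha including 0.5% additive. Effects are judged visually after about 3 weeks (0% = like control, 100% = dead).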

[3] = system: STEME; assay: Pre-emergence action at 320 g/ha against STEME; format: in vivo, Stellaria media; settings: greenhouse, scored visually after about 3 weeks vs untreated controls, 100% = plants have died, 0% = like control plants
Summary of the method: as §1

[4] = system: VIOTR; assay: Pre-emergence action at 320 g/ha against VIOTR; format: in vivo, Viola tricolor; settings: dosage 320 g/ha; for pest or weed control at 320 g/ha: Viola tricolor, 504 h
Summary of the method: as §1

[5] = system: ECHCG; assay: Post-emergence action against ECHCG, 1.28 kg/ha; format: in vivo, Echinochloa crus-galli; settings: dosage 1280 g/ha, visual rating about 3 weeks after treatment vs untreated controls; for pest or weed control at 1280 g/ha: Echinochloa crus-galli, 504 h
Summary of the method: (§2)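 Herbicidal action is estimated by eye after about three weeks under optimum greenhouse conditions, on a 0–100% scale against untreated plants. Compounds are applied post-emergence to one-leaf-stage weeds as aqueous WP or EC preparations containing 0.5% additive, sprayed at 600 L/ha.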

[6] = system: DIGSA; assay: Post-emergence action at 320 g/ha against DIGSA; format: in vivo, Digitaria sanguinalis; settings: dosage 320 g/ha, visual rating about 3 weeks after treatment vs untreated controls (100% = plants died); for pest or weed control at 320 g/ha: Digitaria sanguinalis, 504 h
Summary of the method: (§3)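 Sow in sandy loam → greenhouse growth 2–3 wk → spray at one-leaf stage (WP/EC, aqueous, +0.5% additive, 600 l/ha) → hold ~3 wk under optimum conditions → visual rating, 0–100% relative to untreated.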

[7] = system: ECHCG; assay: Post-emergence action at 320 g/ha against ECHCG; format: in vivo, Echinochloa crus-galli; settings: dosage 320 g/ha, visual rating about 3 weeks after treatment vs untreated controls (100% = plants died)
Summary of the method: as §3

[8] = system: ABUTH; assay: Post-emergence action at 320 g/ha against ABUTH; format: in vivo, Abutilon theophrasti; settings: visual rating about 3 weeks after treatment vs untreated controls
Summary of the method: as §3

[9] = system: VIOTR; assay: Post-emergence action at 320 g/ha against VIOTR; format: in vivo, Viola tricolor; settings: visual rating about 3 weeks after treatment vs untreated controls; for pest or weed control at 320 g/ha: Viola tricolor, 504 h
Summary of the method: as §3

[10] = system: AVEFA; assay: Post-emergence action at 320 g/ha against AVEFA; format: in vivo; settings: visual rating about 3 weeks after treatment vs untreated controls; for pest or weed control at 320 g/ha: Avena fatua, 504 h
Summary of the method: as §3

[11] = system: HORMU; assay: Post-emergence action at 320 g/ha against HORMU; format: in vivo, Hordeum murinum; settings: visual rating about 3 weeks after treatment vs untreated controls
Summary of the method: as §3

[12] = system: ECHGC; assay: Pre-emergence action at 320 g/ha against ECHGC; format: in vivo, Echinochloa crus-galli; settings: visual scoring after about 3 weeks vs untreated controls
Summary of the method: as §1

[13] = system: LOLRI; assay: Post-emergence action against LOLRI, 1.28 kg/ha; format: in vivo, Lolium rigidum; settings: dosage 1280 g/ha, visual rating about 3 weeks after treatment vs untreated controls
Summary of the method: as §2

[14] = system: AMARE; assay: Post-emergence action against AMARE, 1.28 kg/ha; format: in vivo, Amaranthus retroflexus; settings: dosage 1280 g/ha, visual rating about 3 weeks after treatment vs untreated controls (100% = plants died)
Summary of the method: as §2

[15] = system: ABUTH; assay: Post-emergence action against ABUTH, 1.28 kg/ha; format: in vivo, Abutilon theophrasti; settings: dosage 1280 g/ha, visual rating about 3 weeks after treatment vs untreated controls (100% = plants died)
Summary of the method: as §2

[16] = system: KCHSC; assay: Post-emergence action against KCHSC, 1.28 kg/ha; format: in vivo, Bassia scoparia; settings: dosage 1280 g/ha, visual rating about 3 weeks after treatment vs untreated controls (100% = plants died)
Summary of the method: as §2

[17] = system: SETVI; assay: Post-emergence action at 320 g/ha against SETVI; format: in vivo, Setaria viridis; settings: visual rating about 3 weeks after treatment vs untreated controls
Summary of the method: as §3

Row | SMILES | Pre-emergence action against ALOMY [1] | Pre-emergence action against PHBPU in % [2] | Pre-emergence action at 320 g/ha against STEME in % [3] [%] | pest or weed control at 320 g/ha [4] [%] | pest or weed control at 1280 g/ha [5] [%] | pest or weed control at 320 g/ha [6] [%] | Post-emergence action at 320 g/ha against ECHCG in % [7] [%] | Post-emergence action against ABUTH in % [8] [%] | pest or weed control at 320 g/ha [9] [%] | pest or weed control at 320 g/ha [10] [%] | Post-emergence action against HORMU in % [11] [%] | Pre-emergence action against ECHGC in % [12] [%] | Post-emergence action against LOLRI [13] [%] | Post-emergence action against AMARE [14] | Post-emergence action against ABUTH [15] [%] | Post-emergence action against SETVI in % [17] | Pre-emergence action against VIOTR in % [4] [%] | Post-emergence action against ECHCG [5] [%] | Post-emergence action against VIOTR in % [9] [%] | Post-emergence action against AVEFA in % [10] [%] | also measured
1 | O=C(O)COc1nn(-c2ccccc2F)c(-c2cncnc2)c1Br [VI-007, {[4-Bromo-1-(2-fluorophenyl)-5-(pyrimidin-5-yl)-1H-pyrazol-3-yl]oxy}acetic Acid] | 90% | 90% | 100 | 100 | 100 | 80 | 80 | 90 | 90 | 100 | 90 | – | – | – | – | – | – | – | – | – | –
2 | O=C(O)COc1nn(-c2ccccc2F)c(-c2ccc(F)nc2)c1Br [VII-003, {[4-Bromo-1-(2-fluorophenyl)-5-(6-fluoropyridin-3-yl)-1H-pyrazol-3-yl]oxy}acetic acid] | 90% | 90% | 90 | 100 | 90 | 90 | 90 | 80 | 90 | 80 | 90 | 100 | 100 | 100% | – | – | – | – | – | – | –
3 | CCOC(=O)COc1nn(-c2ccccc2F)c(-c2ccc(F)nc2)c1Br [VII-012, Ethyl {[4-bromo-1-(2-fluorophenyl)-5-(6-fluoropyridin-3-yl)-1H-pyrazol-3-yl]oxy}acetate] | 100% and 90% | 90% and 80% | 100 | 100 | 100 | 80 | 90 | 80 | 90 | 90 | 90 | 100 | 100 | 100% and 90% | 100 | 100% and 80% | – | – | – | – | Post-emergence action against KCHSC [16]: 90%
4 | CCOC(=O)C(C)Oc1nn(-c2ccccc2F)c(-c2ccc(F)nc2)c1Br (stereo not drawn) [VII-019] | 90% | 90% | 90 | – | – | – | 90 | 80 | – | – | 100 | 100 | 100 | 90% | – | 80% | 100 | 100 | 90 | 100 | Post-emergence action against KCHSC [16]: 90%; Post-emergence action at 320 g/ha against DIGSA in % [6]: 90%
5 | COC(=O)COc1nn(-c2ccc(F)cc2)c(-c2cccnc2)c1Br [VII-028] | – | 100% | 90 | – | – | – | 80 | 80 | – | – | 80 | 80 | 90 | 100% | 90 | 80% | 100 | 90 | 80 | 80 | –
6 | COC(=O)C(C)Oc1nn(-c2ccccc2)c(-c2cccnc2)c1Cl (stereo not drawn) [VII-032] | – | 100% | 90 | – | – | – | 90 | 80 | – | – | 90 | 90 | 100 | 100% | 90 | 80% | 100 | 100 | 90 | 100 | Post-emergence action at 320 g/ha against DIGSA in % [6]: 90%
